The assay addresses T1, Signal transducer and activator of transcription 1-alpha/beta (Homo sapiens, UniProt P42224).
T1 sequence (P42224 whole entry): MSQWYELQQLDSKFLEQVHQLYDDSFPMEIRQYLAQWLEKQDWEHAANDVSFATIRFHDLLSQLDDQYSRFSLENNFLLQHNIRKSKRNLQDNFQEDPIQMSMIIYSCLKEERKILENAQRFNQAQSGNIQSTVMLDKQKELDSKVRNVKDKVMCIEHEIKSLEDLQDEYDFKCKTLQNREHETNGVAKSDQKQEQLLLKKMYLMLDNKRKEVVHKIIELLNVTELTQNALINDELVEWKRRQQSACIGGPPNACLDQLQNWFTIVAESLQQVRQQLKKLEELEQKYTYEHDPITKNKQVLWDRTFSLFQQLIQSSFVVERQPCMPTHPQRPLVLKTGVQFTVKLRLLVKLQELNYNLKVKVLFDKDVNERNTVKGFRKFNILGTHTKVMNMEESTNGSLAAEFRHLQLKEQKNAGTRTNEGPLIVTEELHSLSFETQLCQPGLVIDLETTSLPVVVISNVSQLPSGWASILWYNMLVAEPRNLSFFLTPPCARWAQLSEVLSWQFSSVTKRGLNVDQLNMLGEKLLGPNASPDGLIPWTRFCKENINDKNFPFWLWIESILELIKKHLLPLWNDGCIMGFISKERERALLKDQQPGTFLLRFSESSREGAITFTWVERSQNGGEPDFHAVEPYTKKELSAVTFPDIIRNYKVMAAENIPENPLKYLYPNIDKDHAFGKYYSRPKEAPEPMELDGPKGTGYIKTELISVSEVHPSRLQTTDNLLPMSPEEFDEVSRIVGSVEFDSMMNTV
In words: Bioassay Evaluation.

Structures are written as SMILES.

Description: Compound samples (in 3-5 mg quantities) were evaluated in a variety of assays.

The term IC50 denotes the point on the concentration scale where inhibition reaches its midpoint. A high value points to weaker potency in that assay. With `CC1Sc2nnc(-c3[nH]nc4c3CCC4)n2N=C1c1ccc(Cl)c(Cl)c1` (configuration not stated) [US10618914, Compound 19], the concentration for half-maximal inhibition (IC50) is over 50 µM.

In the case of `CC1(C)Sc2nnc(-c3[nH]nc4c3CCC4)n2N=C1c1ccc(Cl)c(Cl)c1` [US10618914, Compound 32], the IC50 is over 50 µM.

These data come from BindingDB's records for patent US10618914 (University of Pittsburgh, 2020).
